Results on one compound are retold here after publication PMC11306511, “Combining VPS34 inhibitors with STING agonists enhances type I interferon signaling and anti‐tumor efficacy” (Molecular Oncology, 2024).

≈ marks a conversion by molar mass, not a printed value. Like-named read-outs stand apart in the source and are kept apart here.

Series [1] can be described thus: CaCo2 monolayer permeability assay. It is filed as in vitro ADME. To be noted: human, Caco-2. As to the method: (§1) Experiments were conducted at Aragen Life Sciences Ltd. (Hyderabad, India) according to internal standard procedures.
Series [2] can be described thus: Plasma protein binding, human. It is filed as in vitro ADME. Conditions: unbound/free fraction, read-out: PPB (% unbound) human. How it is done:
as §1

In a further series the test system is CCL5 and CXCL10. Put plainly: Plasma CCL5/CXCL10 in Renca tumor-bearing mice (Mesoscale Discovery). It is filed as in vivo, mouse. To be noted: Renca tumor-bearing BALB/c mice, 20 mg·kg^−1 oral daily, vs vehicle. The source says:
(§2) Study protocols were approved by the Institutional Animal Care and Use Committee of CrownBio in China (AN‐1903‐05‐313) or the LIH's animal welfare committee in Luxembourg (agreement LECR‐2018‐12). Mice were handled according to European Union guidelines, adhering to the principles of replacement, reduction, and refinement (3Rs). Animals were housed in appropriate accommodations conducive to their well‐being, with provisions for housing, feeding, and environmental enrichment to meet their physical and behavioral needs. Highly skilled personnel were involved in carrying out procedures related to the animal experiments to ensure proper care and handling. […] Tumor growth was measured using a caliper every other day and estimated as follows: volume (cm^3) = (width)^2 × length × 0.5.
Cell culture medium was centrifuged at 300 g for 10 min at 4 °C and supernatant stored at −80 °C. […] Cytokine levels were quantified using Mesoscale Discovery (MSD) assays: human CCL5 (#F21ZN), CXCL10 (#K151UFK), IFNβ (#K151VIK); mouse CCL5 (#K152A2K) and CXCL10 (#K152UFK). Low concentrations of human IFNβ were determined using High‐Sensitivity IFNβ ELISA (#41415‐1; PBL Assay Science, Piscataway, NJ, USA). CCL5/CXCL10 levels in some experiments were quantified using R&D Systems (Minneapolis, MN, USA) ELISAs: human CCL5 (#DY278) or CXCL10 (#DY266); mouse CCL5 (#DY478).

The next series deals with CYP3A4 (Homo sapiens, UniProt P08684). Put plainly: CYP inhibition. It is filed as in vitro ADME. How it is done: as §1
CYP3A4, sequence (P08684 whole entry): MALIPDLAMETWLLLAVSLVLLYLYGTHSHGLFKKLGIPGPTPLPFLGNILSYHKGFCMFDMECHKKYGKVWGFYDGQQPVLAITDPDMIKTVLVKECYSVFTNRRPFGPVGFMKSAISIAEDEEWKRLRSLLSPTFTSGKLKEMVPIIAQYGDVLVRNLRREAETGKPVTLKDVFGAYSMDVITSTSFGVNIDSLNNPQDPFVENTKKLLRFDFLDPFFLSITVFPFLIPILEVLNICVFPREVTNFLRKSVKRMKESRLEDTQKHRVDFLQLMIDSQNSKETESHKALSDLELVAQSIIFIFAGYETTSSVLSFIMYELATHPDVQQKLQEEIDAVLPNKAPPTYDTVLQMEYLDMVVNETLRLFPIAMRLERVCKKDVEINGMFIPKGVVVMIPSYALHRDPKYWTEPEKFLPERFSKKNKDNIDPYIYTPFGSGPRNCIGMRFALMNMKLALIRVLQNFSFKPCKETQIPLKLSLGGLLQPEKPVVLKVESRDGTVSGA
Series [3] can be described thus: Plasma protein binding, mouse. It is filed as in vitro ADME. To be noted: unbound/free fraction, read-out: PPB (% unbound) mouse. How it is done: as §1
The nature of series [4]: Solubility (PBS, FaSSIF, SGF). It is filed as physicochemical. How it is done:
as §1

The next series has as its system B16-F10 tumors. Put plainly: Tumor growth inhibition study, B16-F10 tumor-bearing mice. It is filed as in vivo, mouse. To be noted: B16-F10 in C57BL/6 mice; SB02024 20 mg·kg^−1 oral daily day 7-16; ADU-S100 10 μg intratumoral days 9, 11, 13, 15.
From the text: as §2, with “handling. Female 6 to 8‐week‐old BALB/c (supplied by Shanghai Lingchang Biotechnology Co., Shanghai, China; n = 14) or C57BL/6 mice (supplied by Janvier Labs, Le Genest‐Saint‐Isle, France; n = 40) were injected into the right flank with 1 × 10^6 Renca or 0.2 × 10^6 B16‐F10 cells, respectively, resuspended in 100 μL PBS (day 0). When tumors were palpable (day 9 for Renca, day 7 for B16‐F10 tumors), mice were randomly assigned into two groups for the Renca model with n = 6 (vehicle) and n = 8 (SB02024) or four groups for the B16‐F10 model with n = 10.” for “handling.”

The next series in a line: pKa. It is filed as physicochemical. Conditions: read-out: pKa (weakly basic). As to the method: as §1
For another series, the target named is T1, PXR (Homo sapiens, UniProt O75469).
T1 sequence (O75469 1-434): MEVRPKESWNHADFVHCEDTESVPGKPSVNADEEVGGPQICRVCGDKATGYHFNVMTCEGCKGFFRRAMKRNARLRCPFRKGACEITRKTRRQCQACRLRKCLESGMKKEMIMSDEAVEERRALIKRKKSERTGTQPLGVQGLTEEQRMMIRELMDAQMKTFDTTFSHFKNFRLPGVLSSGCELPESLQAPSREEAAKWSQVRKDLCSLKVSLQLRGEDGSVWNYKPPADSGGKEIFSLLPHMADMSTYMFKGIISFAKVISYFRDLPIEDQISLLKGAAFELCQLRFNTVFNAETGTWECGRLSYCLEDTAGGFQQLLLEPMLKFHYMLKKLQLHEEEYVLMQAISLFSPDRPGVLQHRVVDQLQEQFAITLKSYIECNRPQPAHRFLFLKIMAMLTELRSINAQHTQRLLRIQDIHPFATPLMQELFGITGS
Put plainly: CYP3A4 induction, PXR. It is filed as in vitro ADME. How it is done: as §1

Compound `C[C@@H]1COCCN1c1cc(N2CCCC[C@@H]2C(F)(F)F)[nH]c(=O)c1` [SB02024] displayed a Papp A→B in [1] of 51 ×10⁻⁶ cm/s. Moreover, the efflux ratio in series [1] turned out to be 0.9. Moreover, the fraction unbound in series [2] is 0.44; in [3], 0.14. For the same compound, the “CCL5 and CXCL10 in blood plasma” value in the series on CCL5 and CXCL10 is reported as “significant increase”. At CYP3A4, the “inhibition of CYP3A (in words)” value is recorded as “weak inhibition”. Besides, the inhibition at 10 µM at CYP3A4 (human, 10 μM, 3A4, read-out: Highest CYP inhibition (%) @ 10 μM) was determined as 14%. Moreover, the “solubility in both gastric and small intestinal pH media (in words)” value in series [4] is recorded as “excellent”. Moreover, the solubility in series [4] (FaSSIF, pH 6.5, fassif, read-out: Solubility FaSSIF, pH 6.5) is 890 µM (≈ 307 µg/mL); in [4] (PBS buffer, pH 7.4, aqueous buffer, read-out: Solubility in PBS buffer, pH 7.4), 175 µM (≈ 60.4 µg/mL); in series [4] (SGF, pH 1.8, simulated gastric fluid, read-out: Solubility SGF, pH 1.8), 2150 µM (≈ 743 µg/mL). For the same compound, the “% TGI (percent tumor growth inhibition compared to vehicle control)” value in the series with B16-F10 tumors worked out at 27%. The pKa in “pKa” came to 2.2. The “induction of CYP3A4 (in words)” value at PXR is “no induction”.
